Assay [1] concerns T-47D. The assay can be described thus: Cellular Assay T-47D. Type of assay: cell-based. The note with it: Homo sapiens, T47D; T-47D cells.
In assay [2] the target is human full length PIK3CA Wild-type (p110α/p85α complex) (Homo sapiens (Human), UniProt P42336). The assay can be described thus: PI3K-Alpha kinase (PIK3CA) activity, wild-type, Transcreener ADP2 FI assay. The note with it: PI3K-α (PIK3CA) wild-type, biochemical. The method, boiled down: (§1)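 Recombinant full-length p110α/p85α (1-5 nM, wild-type or H1047R) preincubated with compound 1 h at 27° C, then reacted with 25 uM ATP and 50 uM PIP2diC8 or membrane PIP2:PS in pH 7.4 HEPES, 25 mM MgCl2, 5% DMSO (also pH 6.0/6.4 MOPS). Run to ~2.5 uM ADP; Transcreener ADP2 fluorescence converted via ADP calibration for IC50.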
human full length PIK3CA Wild-type (p110α/p85α complex), sequence (P42336 whole entry): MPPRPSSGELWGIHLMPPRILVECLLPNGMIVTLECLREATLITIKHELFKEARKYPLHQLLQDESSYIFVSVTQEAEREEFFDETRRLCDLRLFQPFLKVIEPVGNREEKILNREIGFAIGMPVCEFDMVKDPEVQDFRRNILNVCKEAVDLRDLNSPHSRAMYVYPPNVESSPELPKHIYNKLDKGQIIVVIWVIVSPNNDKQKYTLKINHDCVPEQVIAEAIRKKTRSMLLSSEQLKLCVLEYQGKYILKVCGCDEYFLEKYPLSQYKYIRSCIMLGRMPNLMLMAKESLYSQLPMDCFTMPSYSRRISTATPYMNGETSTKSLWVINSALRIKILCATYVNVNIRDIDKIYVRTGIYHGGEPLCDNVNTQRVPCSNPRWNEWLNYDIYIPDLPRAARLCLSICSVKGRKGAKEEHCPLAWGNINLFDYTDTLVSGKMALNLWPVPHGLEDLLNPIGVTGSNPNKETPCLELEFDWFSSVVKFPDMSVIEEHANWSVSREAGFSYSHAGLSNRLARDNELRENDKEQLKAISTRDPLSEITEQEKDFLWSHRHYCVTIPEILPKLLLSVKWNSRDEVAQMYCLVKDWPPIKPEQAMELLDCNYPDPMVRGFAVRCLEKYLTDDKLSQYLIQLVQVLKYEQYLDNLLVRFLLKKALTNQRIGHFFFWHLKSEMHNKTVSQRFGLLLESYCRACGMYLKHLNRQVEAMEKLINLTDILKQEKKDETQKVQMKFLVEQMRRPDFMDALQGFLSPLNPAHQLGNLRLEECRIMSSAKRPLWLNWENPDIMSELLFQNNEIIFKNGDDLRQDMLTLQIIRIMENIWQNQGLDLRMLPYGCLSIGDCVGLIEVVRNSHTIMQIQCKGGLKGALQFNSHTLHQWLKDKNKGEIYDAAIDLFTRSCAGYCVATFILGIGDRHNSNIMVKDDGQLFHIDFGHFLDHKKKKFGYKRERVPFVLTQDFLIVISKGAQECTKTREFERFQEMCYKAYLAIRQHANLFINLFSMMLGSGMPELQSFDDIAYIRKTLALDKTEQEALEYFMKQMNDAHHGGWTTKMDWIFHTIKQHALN
human full length PIK3CA Wild-type (p110α/p85α complex), sequence (P27986 whole entry partner): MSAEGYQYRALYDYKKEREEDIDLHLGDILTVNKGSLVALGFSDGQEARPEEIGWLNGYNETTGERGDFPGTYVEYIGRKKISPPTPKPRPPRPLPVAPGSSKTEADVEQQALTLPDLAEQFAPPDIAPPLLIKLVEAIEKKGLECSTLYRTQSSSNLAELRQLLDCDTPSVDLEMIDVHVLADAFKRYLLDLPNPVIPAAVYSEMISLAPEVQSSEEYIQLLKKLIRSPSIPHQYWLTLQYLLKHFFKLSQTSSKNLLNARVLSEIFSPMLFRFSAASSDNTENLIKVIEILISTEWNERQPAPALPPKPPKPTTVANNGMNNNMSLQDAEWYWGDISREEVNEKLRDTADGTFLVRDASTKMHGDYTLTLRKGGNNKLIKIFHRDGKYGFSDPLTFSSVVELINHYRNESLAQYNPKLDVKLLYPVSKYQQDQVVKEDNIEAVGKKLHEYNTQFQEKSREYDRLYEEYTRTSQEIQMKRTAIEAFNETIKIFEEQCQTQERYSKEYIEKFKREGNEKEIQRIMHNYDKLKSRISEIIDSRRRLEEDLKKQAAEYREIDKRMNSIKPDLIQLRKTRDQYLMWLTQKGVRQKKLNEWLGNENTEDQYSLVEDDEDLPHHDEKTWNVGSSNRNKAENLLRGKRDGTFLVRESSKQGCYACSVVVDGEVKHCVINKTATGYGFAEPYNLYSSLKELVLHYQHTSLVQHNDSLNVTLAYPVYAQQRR

Assay [3] addresses human full length PIK3CA H1047R mutant (p110α/p85α complex) (Homo sapiens (Human), UniProt P42336, H1047R). The assay can be described thus: PI3K-Alpha kinase (PIK3CA) activity, H1047R mutant, Transcreener ADP2 FI assay. The settings on record: PI3K-α (PIK3CA) H1047R mutant, biochemical. The method, boiled down:
as §1

In patent US11649227B2, “Allosteric chromenone inhibitors of phosphoinositide 3-kinase (PI3K) for the treatment of disease” (Petra Pharma Corporation, priority 2020, dated 2023) one finds EC50 and IC50 data, which are given here for 30 compounds.

human full length PIK3CA H1047R mutant (p110α/p85α complex), sequence (P42336 whole entry H1047R): as the sequence (P42336 whole entry) above, with H1047R counted along it
human full length PIK3CA H1047R mutant (p110α/p85α complex), sequence (P27986 whole entry partner): as the sequence (P27986 whole entry partner) above

As usually defined, the EC50 is the concentration giving half of the maximal effect. The low end stands for greater potency, the high end for weaker potency. Consider `Cc1cc(C(C)Nc2ccccc2C(=O)O)c2oc(N3CCC(C)(C)CC3)c(C)c(=O)c2c1` (single isomer, unassigned) [Example 358, 2-[1-[2-(4,4-Dimethyl-1-piperidyl)-3,6-dimethyl-4-oxo-chromen-8-yl]ethylamino]benzoic acid], for which the EC50 in assay [1] is < 1 µM.

Compound `Cc1cc(C(C)Nc2ccc(C#N)cc2C(=O)O)c2oc(N3CCC(C)(C)CC3)cc(=O)c2c1` (stereo not shown) [Example 6, 5-Cyano-2-[1-[2-(4,4-dimethyl-1-piperidyl)-6-methyl-4-oxo-chromen-8-yl]ethylamino]benzoic acid] gave an EC50 in assay [1] of 1 to 5 µM.

In assay [1], `Cc1cc(C(C)Nc2ccc(Br)cc2C(=O)O)c2oc(N3CCC(C)(C)CC3)cc(=O)c2c1` (stereo not shown) [Example 7, 5-Bromo-2-[1-[2-(4,4-dimethyl-1-piperidyl)-6-methyl-4-oxo-chromen-8-yl]ethylamino]benzoic acid] registered an EC50 of 5 to 15 µM.

Compound `Cc1cc(C(C)Nc2cc(Cl)ccc2C(=O)O)c2oc(N3CCC(C)(C)CC3)cc(=O)c2c1` (stereo not shown) [Example 10, 4-Chloro-2-[1-[2-(4,4-dimethyl-1-piperidyl)-6-methyl-4-oxo-chromen-8-yl]ethylamino]benzoic acid] came in with an EC50 in assay [1] of 15 to 24 µM.

In turn, `Cc1cc(C(C)Nc2c(Cl)cccc2C(=O)O)c2oc(N3CCC(C)(C)CC3)cc(=O)c2c1` (stereo not shown) [Example 11, 3-Chloro-2-[1-[2-(4,4-dimethyl-1-piperidyl)-6-methyl-4-oxo-chromen-8-yl]ethylamino]benzoic acid] displayed an EC50 in assay [1] of 15 to 24 µM.

Take `Cc1cc(C(C)Nc2cc(C)c(C)cc2C(=O)O)c2oc(N3CCC(C)(C)CC3)cc(=O)c2c1` (stereo not shown) [Example 12, 2-[1-[2-(4,4-Dimethyl-1-piperidyl)-6-methyl-4-oxo-chromen-8-yl]ethylamino]-4,5-dimethyl-benzoic acid]: the concentration for a half-maximal effect (EC50) in assay [1] was > 24 µM.

`Cc1cc(C(C)Nc2cc(F)c(F)cc2C(=O)O)c2oc(N3CCC(C)(C)CC3)cc(=O)c2c1` (stereo not shown) [Example 13, 2-[1-[2-(4,4-Dimethyl-1-piperidyl)-6-methyl-4-oxo-chromen-8-yl]ethylamino]-4,5-difluoro-benzoic acid]: the EC50 in assay [1] lay within 15 to 24 µM.

In assay [1], `Cc1cc(C(C)Nc2ccc(F)cc2C(=O)O)c2oc(N3CCC(C)(C)CC3)cc(=O)c2c1` (stereo not shown) [Example 14, 2-[1-[2-(4,4-Dimethyl-1-piperidyl)-6-methyl-4-oxo-chromen-8-yl]ethylamino]-5-fluoro-benzoic acid] registered an EC50 of 1 to 5 µM.

For `COc1ccc(NC(C)c2cc(C)cc3c(=O)cc(N4CCC(C)(C)CC4)oc23)c(C(=O)O)c1` (stereo not shown) [Example 15, 2-[1-[2-(4,4-Dimethyl-1-piperidyl)-6-methyl-4-oxo-chromen-8-yl]ethylamino]-5-methoxy-benzoic acid], the EC50 in assay [1] was in the range of 5 to 15 µM.

`COc1cc(NC(C)c2cc(C)cc3c(=O)cc(N4CCC(C)(C)CC4)oc23)c(C(=O)O)cc1OC` (stereo not shown) [Example 16, 2-[1-[2-(4,4-Dimethyl-1-piperidyl)-6-methyl-4-oxo-chromen-8-yl]ethylamino]-4,5-dimethoxy-benzoic acid]: in assay [1], the EC50 was > 24 µM.

Consider `Cc1cc(C(C)Nc2c(C)cccc2C(=O)O)c2oc(N3CCC(C)(C)CC3)cc(=O)c2c1` (stereo not shown) [Example 17, 2-[1-[2-(4,4-Dimethyl-1-piperidyl)-6-methyl-4-oxo-chromen-8-yl]ethylamino]-3-methyl-benzoic acid], for which the EC50 in assay [1] was > 24 µM.

`Cc1cc(C(C)Nc2cc(F)c(C)cc2C(=O)O)c2oc(N3CCC(C)(C)CC3)cc(=O)c2c1` (stereo not shown) [Example 18, 2-[1-[2-(4,4-Dimethyl-1-piperidyl)-6-methyl-4-oxo-chromen-8-yl]ethylamino]-4-fluoro-5-methyl-benzoic acid] displayed an EC50 in assay [1] of 15 to 24 µM.

For the compound `Cc1cc(C(C)Nc2ccccc2S(N)(=O)=O)c2oc(N3CCC(C)(C)CC3)cc(=O)c2c1` (stereo not shown) [Example 21, 2-[1-[2-(4,4-Dimethyl-1-piperidyl)-6-methyl-4-oxo-chromen-8-yl]ethylamino]benzenesulfonamide], the EC50 in assay [1] lay within 5 to 15 µM.

`Cc1cc(C(C)Nc2cccc(F)c2C(=O)O)c2oc(N3CCC(C)(C)CC3)cc(=O)c2c1` (stereo not shown) [Example 23, 2-[1-[2-(4,4-Dimethyl-1-piperidyl)-6-methyl-4-oxo-chromen-8-yl]ethylamino]-6-fluoro-benzoic acid] gave an EC50 in assay [1] of 5 to 15 µM.

As for `Cc1cc(C(C)Nc2cccc(Cl)c2C(=O)O)c2oc(N3CCC(C)(C)CC3)cc(=O)c2c1` (stereo not shown) [Example 24, 2-Chloro-6-[1-[2-(4,4-dimethyl-1-piperidyl)-6-methyl-4-oxo-chromen-8-yl]ethylamino]benzoic acid], the EC50 in assay [1] is > 24 µM.

For `Cc1cc(C(C)Nc2cccc3c2C(=O)NC3=O)c2oc(N3CCC(C)(C)CC3)cc(=O)c2c1` (stereo not shown) [Example 32, 4-((1-(2-(4,4-Dimethylpiperidin-1-yl)-6-methyl-4-oxo-4H-chromen-8-yl)ethyl)amino)isoindoline-1,3-dione], in assay [1], the EC50 was > 24 µM.

For the compound `Cc1cc(C(C)Nc2cc(F)ccc2C(=O)O)c2oc(N3CCC(C)(C)CC3)cc(=O)c2c1` (stereo not shown) [Example 36, 2-[1-[2-(4,4-Dimethyl-1-piperidyl)-6-methyl-4-oxo-chromen-8-yl]ethylamino]-4-fluoro-benzoic acid], the EC50 in assay [1] was in the range of 5 to 15 µM.

As a reminder, the IC50 is the concentration that inhibits the measured activity by half. Take `Cc1cc(C(C)Nc2ccccc2S(=O)(=O)C(F)F)c2oc(N3CCC(C)(C)CC3)cc(=O)c2c1` (stereo not shown) [Example 38, 8-[1-[2-(Difluoromethylsulfonyl)anilino]ethyl]-2-(4,4-dimethyl-1-piperidyl)-6-methyl-chromen-4-one]: the IC50 in assay [2] and in assay [3] was 0.5 to 1 µM each time.

As for `Cc1cc(C(C)Nc2ccccc2-c2noc(=O)[nH]2)c2oc(N3CCC(C)(C)CC3)cc(=O)c2c1` (stereo not shown) [Example 45, 3-[2-[1-[2-(4,4-Dimethyl-1-piperidyl)-6-methyl-4-oxo-chromen-8-yl]ethylamino]phenyl]-4H-1,2,4-oxadiazol-5-one], the IC50 in assay [2] lay within 1 to 5 µM; in assay [3] it was 0.5 to 1 µM.

For the compound `Cc1cc(C(C)Nc2cccc3cc(C(=O)O)sc23)c2oc(N3CCC(C)(C)CC3)cc(=O)c2c1` (stereo not shown) [Example 46, 7-[1-[2-(4,4-Dimethyl-1-piperidyl)-6-methyl-4-oxo-chromen-8-yl]ethylamino]benzothiophene-2-carboxylic acid], the IC50 in assay [2] fell in the range of 1 to 5 µM; in assay [3] it was 0.5 to 1 µM.

With `Cc1cc(C(C)Nc2ccc(C3CC3)nc2C(=O)O)c2oc(N3CCC(C)(C)CC3)cc(=O)c2c1` (stereo not shown) [Example 50, 6-Cyclopropyl-3-[1-[2-(4,4-dimethyl-1-piperidyl)-6-methyl-4-oxo-chromen-8-yl]ethylamino]pyridine-2-carboxylic acid], the IC50 in assay [2] lay within 1 to 5 µM; in assay [3] it was 0.5 to 1 µM.

Consider `CC(Nc1ccccc1C(=O)O)c1cc(C(F)(F)F)cc2c(=O)cc(N3CCC(C)(C)CC3)oc12` (stereo not shown) [Example 57, 2-[1-[2-(4,4-dimethyl-1-piperidyl)-4-oxo-6-(trifluoromethyl)chromen-8-yl]ethylamino]benzoic acid], for which the IC50 in assay [2] fell in the range of 1 to 5 µM; in assay [3], 0.5 to 1 µM.

Take `Cc1cc(C(C)Nc2ccccc2C(=O)O)c2oc(N3CCC(C(F)(F)F)CC3)cc(=O)c2c1` (stereo not shown) [Example 74, 2-[1-[6-Methyl-4-oxo-2-[4-(trifluoromethyl)-1-piperidyl]chromen-8-yl]ethylamino]benzoic acid]: the IC50 is 5 to 10 µM in assay [2] and 0.5 to 1 µM in assay [3].

For the compound `Cc1cc(C(C)Nc2ccccc2C(=O)O)c2oc(N3CCCC4(CCOCC4)C3)cc(=O)c2c1` (stereo not shown) [Example 76, 2-[1-[6-Methyl-2-(9-oxa-2-azaspiro[5.5]undecan-2-yl)-4-oxo-chromen-8-yl]ethylamino]benzoic acid], the IC50 fell in the range of 5 to 10 µM in assay [2] and 0.5 to 1 µM in assay [3].

For the compound `Cc1cc(C(C)Nc2ccccc2C(=O)O)c2oc(N3CCOC(c4ccc(S(C)(=O)=O)cc4)C3)cc(=O)c2c1` (stereo not shown) [Example 85, 2-[1-[6-Methyl-2-[2-(4-methylsulfonylphenyl)morpholin-4-yl]-4-oxo-chromen-8-yl]ethylamino]benzoic acid], the IC50 in assay [2] and in assay [3] was 1 to 5 µM each time.

Consider `Cc1cc(C(C)Nc2ccccc2C(=O)O)c2oc(N3CCC4(CC3)Cn3nc(C(=O)N(C)C)cc3CO4)cc(=O)c2c1` (stereo not shown) [Example 107, 2-[1-[2-[2-(Dimethylcarbamoyl)spiro[4,7-dihydropyrazolo[5,1-c][1,4]oxazine-6,4′-piperidine]-1′-yl]-6-methyl-4-oxo-chromen-8-yl]ethylamino]benzoic acid], for which the IC50 in assay [2] lay within 5 to 10 µM; in assay [3], 1 to 5 µM.

Regarding `Cc1cc(C(C)Nc2ccccc2C(=O)O)c2oc(N3CCCOCC3)cc(=O)c2c1` (stereo not shown) [Example 151, 2-[1-[6-Methyl-2-(1,4-oxazepan-4-yl)-4-oxo-chromen-8-yl]ethylamino]benzoic acid], the values for the IC50 in assay [2] and in assay [3] were 1 to 5 µM and 0.5 to 1 µM, respectively.

Consider `Cc1cc([C@@H](C)Nc2ccnnc2C(=O)O)c2oc(N3CCC(C)(C)CC3)cc(=O)c2c1` [Example 251], for which the IC50 in assay [2] and in assay [3] was 1 to 5 µM in each case.

Regarding `Cc1cc(C(C)Nc2ccc(Cl)nc2C(=O)O)c2oc(N3Cc4ccccc4C3)cc(=O)c2c1` (stereo not shown) [Example 296, 6-Chloro-3-[1-(2-isoindolin-2-yl-6-methyl-4-oxo-chromen-8-yl)ethylamino]pyridine-2-carboxylic acid], the IC50 was in the range of 1 to 5 µM in assay [2] and 0.5 to 1 µM in assay [3].

For the compound `Cc1cc(C(C)Nc2ccccc2C(=O)O)c2oc(N3CCC(C)(C)CC3)c(C#N)c(=O)c2c1` (stereo not shown) [Example 392, 2-[1-[3-Cyano-2-(4,4-dimethyl-1-piperidyl)-6-methyl-4-oxo-chromen-8-yl]ethylamino]benzoic acid 2,2,2-trifluoroacetic acid], the IC50 in assay [2] and in assay [3] was 0.5 to 1 µM in each case.
